The target in assay [1] is T1, recombinant H. influenzae IgA1P (variant A1) (Haemophilus influenzae, UniProt P44969). Type of assay: biochemical. Particulars: up to 100 μM.
For assay [2], the target named is T1, recombinant H. influenzae IgA1P (variant A1). The assay can be described thus: biochemical.

Here are results for 4 compounds from article PMC6625846 (ACS infectious diseases, 2019).

For orientation: IC50 means the point on the concentration scale where inhibition reaches its midpoint.

Turning to `NCCc1ccc(S(=O)(=O)F)cc1` [Pefablock], the “Inhibition of recombinant H. influenzae IgA1P” value in assay [1] was “did not inhibit”.

For `Oc1nsnc1N1CCOCC1` [Compound 1a, 4-morpholin-4-yl-1,2,5-thiadiazol-3-ol], the IC50 in assay [2] was > 100000 nM.

As to `O=S(=O)(F)Cc1ccccc1` [PMSF], in assay [1], the “Inhibition of recombinant H. influenzae IgA1P” value was “did not inhibit”.

With `O=c1oc(Cl)c(Cl)c2ccccc12` [DCIC, 3,4-dichloroisocoumarin], the IC50 in assay [2] amounted to 6 ± 1 nM.
